Measured values taken from US11771692B2, “N-hydroxyethyl didehydroazapodophyllotoxins as GBP1 inhibitors and methods of overcoming treatment resistance in cancer” (The Board of Trustees of the Leland Stanford Junior …, priority 2018, dated 2023).
Entries after “also recorded” stand apart in the source; their conditions may differ.

How the values were obtained:
OVCAR8 = experiment: MTT cytotoxicity assay, OVCAR8; format: cell-based; conditions: Homo sapiens, OVCAR-8, Ovarian
Protocol: (§1) It was observed that SU093 was highly cytotoxic for all cell lines tested with IC50 values in the nanomolar range.
(§2) Furthermore, OVCAR8 cells with overexpressed (OV) and knockdown (KD) of GBP1 gene were created (FIG. 3, panel D) and cell viability experiments were performed on GBP1-WT (wild-type), GBP1-OV and GBP1-KD OVCAR8 cells at different doses of SU093.

SSC-90 = experiment: MTT cytotoxicity assay, SSC-90; format: cell-based; conditions: Head and Neck, SSC-90, MTT assay
From the text: as §1

A549 = experiment: MTT cytotoxicity assay, A549; format: cell-based; conditions: Homo sapiens, Lung
From the text: as §1

[1] = tested on: GBP1-OV and GBP1-KD OVCAR8 cells; experiment: MTT cell viability in GBP1-WT, GBP1-OV and GBP1-KD OVCAR8 cells; format: cell-based
From the text: FIG. 3, panels A-E. FIG. 3, panel A illustrates the effects of SU093 on survival of human normal HEK293 cell line and ovarian cancer cell lines OVCAR8 & SKOV3 cells via MTT assay. FIG. 3, panel B illustrates the effect of SU093 on GBP1 and PIM1 expression in OVCAR8 cells. […] FIG. 3, panel D illustrates quantification of overexpression and knockdown of GBP1 gene in stably transfected OVCAR8 cells. FIG. 3, panel E illustrates cytotoxicity of SU093 as evaluated in GBP1-OV, GBP1-WT and GBP1-KD OVCAR8 via MTT assay.
as §2

OVCAR8 cells = experiment: Cell cycle analysis and cell cycle/cell death regulators in OVCAR8 cells; format: cell-based
From the text: FIG. 4, panel A illustrates a histogram of cell cycle distribution of propidium iodide (PI)-stained cells. […] FIG. 4, panel C illustrates the effect of SU093 on cell cycle and cell death regulators analyzed by immunostaining. FIG. 4, panel D illustrates mitochondria stained with MitoTracker Red CMXRos and visualized by confocal microscopy indicating mitochondrial dysfunction in OVCAR8 cells. FIG. 4, panel E illustrates the effect of SU093 on active mitochondrial mass in OVCAR8 cells.
as §2
It has been previously established that GBP1 expression has a definitive role in the resistance towards radiation therapy and taxane-based chemotherapy. The GBP1 inhibitor SU093 was tested in combination with radiation and paclitaxel (a well known taxane-based chemotherapeutic drug) for its potential in overcoming radiation therapy and taxane resistance. […] A cell cycle analysis experiment for radiation was performed with SU093 and combination treatment (FIG. 5, panel B). […] One of the mechanisms through which a drug can sensitize the effect of radiation is its ability to block G2/M phase of the cell cycle (Leonard, C. E.; Chan, D. C.; Chou, T. C.; Kumar, R.; Bunn, P. A., Paclitaxel enhances in vitro radiosensitivity of squamous carcinoma cell lines of the head and neck. Cancer Research 1996, 56 (22), 5198-5204). […]

[2] = tested on: Luciferase-tagged OVCAR8 cells; experiment: Viability of luciferase-tagged OVCAR8 cells in combination with radiation or paclitaxel; format: cell-based
Protocol: FIG. 5, panels A-E: illustrates the sensitizing effect of SU093 on the viability of luciferase-tagged OVCAR8 cells in combination with radiation and chemotherapy treatment. FIG. 5, panel A graphs cells that were pre-treated with 0, 0.5 and 1 nM SU093 for 24 h followed by 0, 5 & 10 Gy radiation treatment and incubated for 96 h. FIG. 5, panel B illustrates cell cycle analysis of SU093 and radiation combination treatment in OVCAR8. FIG. 5, panel C illustrates the effect of SU093 on OVCAR8 cells in hypoxic condition (0.5% O2) FIG. 5, panel D graphs hypoxic cells that were pre-treated with SU093 for 24 h followed by 5 and 10 Gy radiation.
It has been previously established that GBP1 expression has a definitive role in the resistance towards radiation therapy and taxane-based chemotherapy. The GBP1 inhibitor SU093 was tested in combination with radiation and paclitaxel (a well known taxane-based chemotherapeutic drug) for its potential in overcoming radiation therapy and taxane resistance. […] A cell cycle analysis experiment for radiation was performed with SU093 and combination treatment (FIG. 5, panel B). […] One of the mechanisms through which a drug can sensitize the effect of radiation is its ability to block G2/M phase of the cell cycle (Leonard, C. E.; Chan, D. C.; Chou, T. C.; Kumar, R.; Bunn, P. A., Paclitaxel enhances in vitro radiosensitivity of squamous carcinoma cell lines of the head and neck. Cancer Research 1996, 56 (22), 5198-5204). G2/M is the most radiosensitive phase in the cell cycle and arresting the cell population in this phase would likely sensitize them to the next cycle of radiation and enhance cell death (Pawlik, T. M.; Keyomarsi, K., Role of cell cycle in mediating sensitivity to radiotherapy. International Journal of Radiation Oncology Biology Physics 2004, 59 (4), 928-942; Nambiar, D. K.; Rajamani, P.; Deep, G.; Jain, A. K.; Agarwal, R.; Singh, R. P., Silibinin Preferentially Radiosensitizes Prostate Cancer by Inhibiting DNA Repair Signaling. Molecular Cancer Therapeutics 2015, 14 (12), 2722-2734). […] Bearing in mind that solid tumors create a hypoxic microenvironment, these findings provided a very compelling case for the clinical application of the subject GBP1 inhibitors as a treatment for re-sensitizing radiation therapy in refractory cancers.
The cytotoxic effect of SU093 and paclitaxel combination treatment was also studied (FIG. 5, panel E).

GBP1 [3] = experiment: Immunoblotting and cycloheximide chase of GBP1 protein in SCC-90 HNC cells; format: cell-based
From the text: (§3) The potential for GBP1 inhibition and radiosensitzation in head and neck cancer cells was also investigated.

SCC-90 cells [4] = experiment: MTT cell viability in SCC-90 cells with GBP1 overexpression and knockdown; format: cell-based; conditions: SCC-90, SU093 0.5-1000 nM, 48 h
From the text: as §3

GBP1 [5] = experiment: Confocal microscopy of GBP1 and β-tubulin in SCC-90 cells; format: cell-based; conditions: SCC-90, SU093 50 nM, 6 h
From the text: as §3

SCC-90 cells [6] = experiment: Clonogenic radiosensitization assay in SCC-90 cells; format: cell-based; conditions: SCC-90, SU093 50 nM then radiation
From the text: as §3

[7] = In vivo pharmacokinetics, plasma concentration by LCMS; conditions: C57BL/6, mouse, C57BL6 female mice, single 10 mg/kg IP
Protocol: FIG. 7, panel A illustrates in vivo PK studies, C57BL/6 mice. Drug concentration in plasma was quantified at different time points using LCMS after a single IP injection of SU093. FIG. 7, panel B illustrates the drug concentration in harvested ovaries and liver of C57BL/6 mice after 14 days of administration with SU093 (100 mg/kg) by daily IP injection.
To investigate the pharmacokinetics and toxicity of the subject GBP1 inhibitors, in vivo pharmacokinetic studies with SU093 were conducted and the drug concentration in mice plasma at different time points after injection was determined (e.g. after 5, 10, 30, 60, 120, 360 minutes after injection). Non-tumor-bearing C57BL6 female mice (n=3/group of each time point) were used for these studies and the drug was administered in a single dose of 10 mg/kg intrepertoneally (IP) at different time points. After each time point 150 microliters of blood was withdraw from retro orbital sinus from the respective group of anesthetized (isoflurane) mice. Plasma was separated from each blood sample and mixed with an equal volume of acetonitrile (w/v). Precipitated protein was separated by centrifugation at 12,000 RPM for 10 min at 4° C. Clear supernatant was analyzed for quantification of SU093 using liquid chromatography mass spectroscopy (LCMS).

## COc1ccc2c(c1)N(CCO)C1=C(C(=O)OC1)C2c1ccccc1 (centres unmarked) [SU093]
OVCAR8
  IC50: 2.49 nM
SSC-90
  IC50: 3.23 nM
A549
  IC50: 2.48 nM
[1]; GBP1-KD OVCAR8 cells
  cytotoxicity compared to GBP1-WT: enhanced cytotoxicity
[1]; GBP1-OV OVCAR8 cells
  cytotoxicity compared to GBP1-WT: reduced cytotoxicity
OVCAR8 cells; OVCAR8, SU093 alone
  cell cycle distribution: G1 phase arrest; also recorded: progression from G1 to S phase was markedly inhibited
OVCAR8 cells; OVCAR8, combination with radiation
  cell cycle distribution, combination of SU093 and radiation: G2/M phase arrest leading to apoptosis; also recorded: G2/M phase arrest leading to apoptotic cell death
OVCAR8 cells; OVCAR8, cyclin D1, CDK2, Bax
  cell cycle and cell death regulators: reduction in cyclin D1 and CDK2 levels and elevation of the cell death regulator Bax
[2]; 5 and 10 Gy radiation
  cell viability, pretreatment with SU093 then radiation: significant synergistic effect
[2]; OVCAR8, hypoxic (0.5% O2)
  cytotoxicity in hypoxic conditions: intrinsic cytotoxic effects
[2]; SU093 0.5 nM 24 h then paclitaxel 1, 5, 10 nM
  cytotoxic effect of SU093 and paclitaxel combination: synergistic cytotoxic effect; also recorded: enhanced cytotoxic effect as compared to paclitaxel alone
[2]; hypoxic OVCAR8, SU093 plus 5 and 10 Gy
  cell death, co-treatment with radiotherapy in hypoxia: significantly potentiated cell death
GBP1 [3]; SCC-90
  GBP1 protein degradation, cyclohexamide chase: degradation of GBP1 protein and reduction of its half-life
GBP1 [3]; SCC-90, western blot, 24 h
  GBP1 protein expression: inhibition in GBP1 expression; also recorded: inhibited GBP1 protein expression
SCC-90 cells [4]
  cytotoxic effect in GBP1 OV and KD cells: GBP1 dependent cytotoxic effect
GBP1 [5]
  GBP1 nuclear translocation and β-tubulin expression: inhibits the nuclear translocation of GBP1 protein and reduces the tubulin expression; also recorded: blocking its nuclear translocation and reducing β-tubulin expression
SCC-90 cells [6]
  radiation sensitizing effect, clonogenic assay: radiosensitization effect; also recorded: significant radiation sensitizing effect
[7]
  Cmax: 1600 ng/mL
  Tmax: 5 min
  half-life: 60 min
